Data: PubChem BioAssay (NCI)
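Cells were grown in 96-well plates and exposed to each compound for 48 hours at five concentrations; endpoints were interpolated linearly between bracketing concentrations, or set to the highest concentration if not reached. Abbreviation: GI50, concentration required for 50% inhibition of growth. Definition used: TGI = concentration required for complete inhibition of growth.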

Columns and labels:
Assay in all cases: inhibition of tumour cell growth, NCI panel, 48 h
BT-549 breast = tested on: BT-549 breast
CAKI-1 renal = tested on: CAKI-1 renal
HCC-2998 colon = tested on: HCC-2998 colon
KM12 colon = tested on: KM12 colon
MOLT-4 leukemia = tested on: MOLT-4 leukemia
NCI-H23 lung = tested on: NCI-H23 lung
SN12C renal = tested on: SN12C renal
SNB-75 CNS = tested on: SNB-75 CNS
SW-620 colon = tested on: SW-620 colon
UACC-62 melanoma = tested on: UACC-62 melanoma

O=C1CS/C(=N/S(=O)(=O)c2ccc(N3N=C4c5ccccc5CC4C3c3cccs3)cc2)N1C(=O)c1ccccc1 (centres undefined)
GI50 (BT-549 breast): 33.5 µM
TGI (BT-549 breast): > 100 µM
GI50 (CAKI-1 renal): 63.9 µM
TGI (CAKI-1 renal): > 100 µM
GI50 (HCC-2998 colon): 17.6 µM
TGI (HCC-2998 colon): 46.6 µM
GI50 (KM12 colon): 21.4 µM
TGI (KM12 colon): 56.4 µM
GI50 (MOLT-4 leukemia): 22.2 µM
TGI (MOLT-4 leukemia): 53.4 µM
GI50 (NCI-H23 lung): 25.1 µM
TGI (NCI-H23 lung): 61.1 µM
GI50 (SN12C renal): 49.6 µM
TGI (SN12C renal): > 100 µM
GI50 (SNB-75 CNS): > 100 µM
TGI (SNB-75 CNS): > 100 µM
GI50 (SW-620 colon): 38.5 µM
TGI (SW-620 colon): > 100 µM
GI50 (UACC-62 melanoma): 23.2 µM
TGI (UACC-62 melanoma): 58.4 µM

O=C1NC(=O)C(=Cc2cn(Cc3ccccc3)c3ccccc23)C(=O)N1
GI50 (BT-549 breast): 15.4 µM
TGI (BT-549 breast): 50.1 µM
GI50 (CAKI-1 renal): 2.15 µM
TGI (CAKI-1 renal): 10.5 µM
GI50 (HCC-2998 colon): 10.9 µM
TGI (HCC-2998 colon): 29.5 µM
GI50 (KM12 colon): 15.9 µM
TGI (KM12 colon): 31.5 µM
GI50 (MOLT-4 leukemia): 12.9 µM
TGI (MOLT-4 leukemia): 32.9 µM
GI50 (NCI-H23 lung): 14.1 µM
TGI (NCI-H23 lung): 34.2 µM
GI50 (SN12C renal): 13.5 µM
TGI (SN12C renal): 40 µM
GI50 (SNB-75 CNS): 7.61 µM
TGI (SNB-75 CNS): 27.1 µM
GI50 (SW-620 colon): 12.1 µM
TGI (SW-620 colon): 28.9 µM
GI50 (UACC-62 melanoma): 2.07 µM
TGI (UACC-62 melanoma): 15.7 µM

FC(F)c1ncc(-c2ccc(C(F)(F)F)cc2)c(NC2CCCCCC2)n1
GI50 (BT-549 breast): > 10 µM
TGI (BT-549 breast): > 10 µM
GI50 (CAKI-1 renal): > 10 µM
TGI (CAKI-1 renal): > 10 µM
GI50 (HCC-2998 colon): > 10 µM
TGI (HCC-2998 colon): > 10 µM
GI50 (KM12 colon): > 10 µM
TGI (KM12 colon): > 10 µM
GI50 (MOLT-4 leukemia): > 10 µM
TGI (MOLT-4 leukemia): > 10 µM
GI50 (NCI-H23 lung): > 10 µM
TGI (NCI-H23 lung): > 10 µM
GI50 (SN12C renal): > 10 µM
TGI (SN12C renal): > 10 µM
GI50 (SNB-75 CNS): > 10 µM
TGI (SNB-75 CNS): > 10 µM
GI50 (SW-620 colon): > 10 µM
TGI (SW-620 colon): > 10 µM
GI50 (UACC-62 melanoma): > 10 µM
TGI (UACC-62 melanoma): > 10 µM

CCc1ccc2oc(=O)ccc2c1
TGI (BT-549 breast): > 100 µM
TGI (CAKI-1 renal): > 100 µM
TGI (HCC-2998 colon): > 100 µM
TGI (KM12 colon): > 100 µM
TGI (MOLT-4 leukemia): > 100 µM
TGI (NCI-H23 lung): > 100 µM
TGI (SN12C renal): > 100 µM
TGI (SNB-75 CNS): > 100 µM
TGI (SW-620 colon): > 100 µM
TGI (UACC-62 melanoma): > 100 µM

CN1CCN(Cc2ccc(NC(=O)c3[nH]ncc3Nc3ncnc4[nH]ccc34)cc2)CC1
GI50 (BT-549 breast): 0.297 µM
TGI (BT-549 breast): 1.07 µM
GI50 (CAKI-1 renal): 1.83 µM
TGI (CAKI-1 renal): 8.19 µM
GI50 (HCC-2998 colon): 0.367 µM
TGI (HCC-2998 colon): 1.42 µM
GI50 (KM12 colon): 0.347 µM
TGI (KM12 colon): 10.9 µM
GI50 (MOLT-4 leukemia): 0.142 µM
TGI (MOLT-4 leukemia): 0.598 µM
GI50 (NCI-H23 lung): 0.295 µM
TGI (NCI-H23 lung): 1.08 µM
GI50 (SN12C renal): 0.333 µM
TGI (SN12C renal): > 100 µM
GI50 (SNB-75 CNS): 0.0393 µM
TGI (SNB-75 CNS): 0.371 µM
GI50 (SW-620 colon): 0.381 µM
TGI (SW-620 colon): 11.6 µM
GI50 (UACC-62 melanoma): 0.411 µM
TGI (UACC-62 melanoma): 1.82 µM

Cc1cc(=O)[nH]c(N/N=C/c2ccccc2O)n1
GI50 (BT-549 breast): 25.3 µM
TGI (BT-549 breast): > 100 µM
GI50 (CAKI-1 renal): 5.19 µM
TGI (CAKI-1 renal): > 100 µM
GI50 (HCC-2998 colon): 12.3 µM
TGI (HCC-2998 colon): > 100 µM
GI50 (KM12 colon): 18.4 µM
TGI (KM12 colon): > 100 µM
GI50 (MOLT-4 leukemia): 4.95 µM
TGI (MOLT-4 leukemia): > 100 µM
GI50 (NCI-H23 lung): 4.21 µM
TGI (NCI-H23 lung): > 100 µM
GI50 (SN12C renal): 18.7 µM
TGI (SN12C renal): > 100 µM
GI50 (SNB-75 CNS): 71.5 µM
TGI (SNB-75 CNS): > 100 µM
GI50 (SW-620 colon): 4.6 µM
TGI (SW-620 colon): > 100 µM
GI50 (UACC-62 melanoma): 9.92 µM
TGI (UACC-62 melanoma): 51 µM

Cc1c(Nc2nccc3cc(CN4CC[C@@H](O)C4)cnc23)cccc1-c1cccc(-c2nc3cc(CN4CC[C@@H](C(=O)O)C4)cc(C#N)c3o2)c1C
GI50 (BT-549 breast): 1.75 µM
TGI (BT-549 breast): 8.68 µM
GI50 (CAKI-1 renal): > 100 µM
TGI (CAKI-1 renal): > 100 µM
GI50 (HCC-2998 colon): 12.7 µM
TGI (HCC-2998 colon): 49 µM
GI50 (KM12 colon): 10.7 µM
TGI (KM12 colon): 27.6 µM
GI50 (MOLT-4 leukemia): 2.72 µM
TGI (MOLT-4 leukemia): 9.08 µM
GI50 (NCI-H23 lung): 12 µM
TGI (NCI-H23 lung): 27.1 µM
GI50 (SN12C renal): 20.1 µM
TGI (SN12C renal): > 100 µM
GI50 (SNB-75 CNS): 15.1 µM
TGI (SNB-75 CNS): > 100 µM
GI50 (SW-620 colon): 4.67 µM
TGI (SW-620 colon): 17.9 µM
GI50 (UACC-62 melanoma): 15.7 µM
TGI (UACC-62 melanoma): 38.1 µM

CC(=O)c1c[nH]c2ccc(-c3ccnc(Nc4ccc(NC(=O)C5CCCC5)c(CN5CCOCC5)c4)n3)cc12
GI50 (BT-549 breast): 0.0328 µM
TGI (BT-549 breast): 0.904 µM
GI50 (CAKI-1 renal): 0.0168 µM
TGI (CAKI-1 renal): 0.561 µM
GI50 (HCC-2998 colon): 0.0444 µM
TGI (HCC-2998 colon): 0.6 µM
GI50 (KM12 colon): 0.0258 µM
TGI (KM12 colon): 0.141 µM
GI50 (MOLT-4 leukemia): 0.0287 µM
TGI (MOLT-4 leukemia): 0.474 µM
GI50 (NCI-H23 lung): 0.0344 µM
TGI (NCI-H23 lung): 0.364 µM
GI50 (SN12C renal): 0.0301 µM
TGI (SN12C renal): 3.97 µM
TGI (SNB-75 CNS): 0.042 µM
GI50 (SW-620 colon): 0.0387 µM
TGI (SW-620 colon): 0.551 µM
GI50 (UACC-62 melanoma): 0.0205 µM
TGI (UACC-62 melanoma): 0.0481 µM

Cc1nn(C)c2ncnc(N/N=C/c3cccc(O)c3O)c12
GI50 (BT-549 breast): 0.602 µM
TGI (BT-549 breast): > 100 µM
GI50 (CAKI-1 renal): 1.31 µM
TGI (CAKI-1 renal): 16.5 µM
GI50 (HCC-2998 colon): 0.853 µM
TGI (HCC-2998 colon): > 100 µM
GI50 (KM12 colon): 0.392 µM
TGI (KM12 colon): > 100 µM
GI50 (MOLT-4 leukemia): 0.323 µM
TGI (MOLT-4 leukemia): 28.7 µM
GI50 (NCI-H23 lung): 0.774 µM
TGI (NCI-H23 lung): > 68.2 µM
GI50 (SN12C renal): 0.481 µM
TGI (SN12C renal): > 100 µM
GI50 (SNB-75 CNS): 0.548 µM
TGI (SNB-75 CNS): 6.8 µM
GI50 (SW-620 colon): 0.48 µM
TGI (SW-620 colon): > 100 µM
GI50 (UACC-62 melanoma): 1.69 µM
TGI (UACC-62 melanoma): 5.98 µM
